According to patent publication US20190187129A1, “CANCER MODELING PLATFORMS AND METHODS OF USING THE SAME” (Wake Forest University Health Sciences, priority 2016, published 2019):

What was measured:
Test in all cases: 3D hyaluronan-based hydrogel construct drug screen, MTS assay
[1] = tested on: CACO2 cells; conditions: Homo sapiens, Caco-2, 3D, read-out: percent relative cell viability (MTS, relative to control)
Protocol: (§1) Polydimethylsiloxane, or PDMS, was used to coat the bottom of the wells. Cells were embedded within the hyaluronan-based hydrogel and were given 5 days to acclimate to their three-dimensional environment and on day 5 were administered different anticancer drug solutions (FIG. 7, panel A). […] At 100 μM concentrations of Regorafenib and Sorafenib, cellular viability remained below 25% that of the control for all four of the colorectal cancer cell lines utilized. The only exception to this was when 100 μM Regorafenib was administered to CACO2 cells and the percent relative cell viability rose to approximately 48%. […] At a 100 μM concentration, Dabrafenib had greater efficacy in targeting the HCT116 and SW480 cell lines, which had relative cellular viability values of 38% and 43%, as opposed to the HT29 and CACO2 cell lines, which had higher cell viability values of 93% and 75%. 100 μM concentrations of Trametinib produced relative cellular viability results that fell within a narrow range for the four colorectal cell lines with values of 54% for SW480 cells and 74% for HT29 cells.
(§2) Well Coating with PDMS and Cell Isolation: Polydimethylsiloxane, or PDMS, (DOW Corning, North Carolina, USA) was used at a 1:10 curing agent ratio to coat the bottom of the 96-well plates and the plates were then placed in a 80° C. oven for at least one hour. Cells were passaged in the same methods previously mentioned (A) with the desire to place 10 μL 3D hyaluronan-based hydrogel constructs containing 100,000 cells each ([…]) into the wells of a 96-wells plate for all four colorectal cancer cell types. Depending on the cell count, a desired number of cells were isolated in new 15 mL centrifuge tubes as cell-media solution and underwent centrifugation.
(§3) Hydrogel Components of the Single-Cell Type Constructs: The hyaluronic acid-based hydrogel (ESI BIO, California, USA) was produced using a mixture of three components: Heprasil, Gelin-S, and Extralink PEGDA 2-ARM Acrylate crosslinker. These components were mixed in a 2:2:1 ratio by volume. 0.1% Irgacure photoinitiator (Sigma-Aldrich, Missouri, USA) was added to each of the three components prior to their mixture and the three components were placed in a 37° C. incubator for a ˜30 minutes to solubilize.
Forming Organoid Constructs: Once solubilized, the media was aspirated from the 15 mL centrifuge tube (post-centrifugation) and the cells were isolated as a pellet. The hydrogel components were added directly into the centrifuge tube containing the cells and the cells were carefully resuspended in the mixture. 10 μL of the gel-cell solution was placed in the center of the wells on the PDMS coating. This was continued for all wells containing cells and was repeated for each cell type. […]

[2] = tested on: HCT116 cells; conditions: Homo sapiens, HCT-116, 3D, read-out: percent relative cell viability (MTS, relative to control)
Protocol: Polydimethylsiloxane, or PDMS, was used to coat the bottom of the wells. Cells were embedded within the hyaluronan-based hydrogel and were given 5 days to acclimate to their three-dimensional environment and on day 5 were administered different anticancer drug solutions (FIG. 7, panel A). […], Dabrafenib had greater efficacy in targeting the HCT116 and SW480 cell lines, which had relative cellular viability values of 38% and 43%, as opposed to the HT29 and CACO2 cell lines, which had higher cell viability values of 93% and 75%. […]
as §2, §3
(§4) Forming Organoid Constructs: Once solubilized, the media was aspirated from the 15 mL centrifuge tube (post-centrifugation) and the cells were isolated as a pellet. The hydrogel components were added directly into the centrifuge tube containing the cells and the cells were carefully resuspended in the mixture. 10 μL of the gel-cell solution was placed in the center of the wells on the PDMS coating. This was continued for all wells containing cells and was repeated for each cell type. After this point, the gel can be exposed to UV light from a BlueWave 200 spot light (Dymax, Connecticut, USA) to solidify the hydrogel, or one can wait ˜30 minutes for the gel to form on its own. DMEM-10 media was then placed in the wells and the constructs were incubated for 5 days.
(§5) Anticancer Drug Screening and Cell Viability: The same five anticancer drugs were added on Day 5 and the cell viability assay occurred on Day 7.

[3] = tested on: HT29 cells; assay type: cell-based; conditions: Homo sapiens
Protocol: as §1, §2, §3, §4, §5

[4] = tested on: SW480 cells; assay type: cell-based; conditions: Homo sapiens
Protocol: as §1, §2, §3, §4, §5

SMILES	viability at 100 µM ([1]; 100 μM, CACO2, drug day 5, assay day 7)	viability at 100 µM ([2]; 100 μM, HCT116, drug day 5, assay day 7)	viability at 100 µM ([3]; HT-29, 100 μM, HT29, drug day 5, assay day 7, read-out: percent relative cell viability (MTS, relative to control))	viability at 100 µM ([4]; 100 μM, SW480, drug day 5, assay day 7, read-out: percent relative cell viability (MTS, relative to control))	viability at 10000 µM ([1]; 10 mM, CACO2)	viability at 10000 µM ([2]; 10 mM, HCT116)	viability at 100000 µM ([2]; 100 mM, HCT116)	viability at 10000 µM ([3]; HT-29, 10 mM, HT29, read-out: percent relative cell viability (MTS, relative to control))	viability at 10000 µM ([4]; 10 mM, SW480, read-out: percent relative cell viability (MTS, relative to control))	viability at 100000 µM ([4]; 100 mM, SW480, read-out: percent relative cell viability (MTS, relative to control))
CNC(=O)c1cc(Oc2ccc(NC(=O)Nc3ccc(Cl)c(C(F)(F)F)c3)c(F)c2)ccn1 [Regorafenib]	~48%	< 25%	< 25%	< 25%	–	–	–	–	–	–
O=c1[nH]cc(F)c(=O)[nH]1 [5-FU, 5-Fluorouracil]	–	–	–	–	22%	18%	81%	50%	9%	48%
